From patent US10669272B2, “Substituted naphthyridinone compounds useful as T cell activators” (BRISTOL-MYERS SQUIBB COMPANY, priority 2018, dated 2020)
Read-outs that look alike come from different tables or passages of the source.

Key:
Human venous whole blood = experiment: Human whole blood IFN-γ assay; assay type: cell-based; settings: human whole blood, normalized to 3 μM reference compound with anti-CD3 plus anti-CD28 as 100% activation, read-out: INFg Whole Blood Normalized Agonist EC50;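 further: blood from healthy donors exposed to compound for 1 h before stimulation with anti-CD3 and anti-CD28 at 1 µg/mL each, IFN-γ quantified in supernatant by AlphaLISA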
[1] = test system: OT-1 CD8+ T cells with SIINFEKL-loaded MC38 tumor cells; experiment: Murine cytotoxic T lymphocyte assay (IFN-γ, OT-1 CTL with MC38 tumor cells); assay type: cell-based, mouse; settings: read-out: msCTL INFg IC50
Method in brief: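 OT-1 CD8+ T cells, expanded 5 days with OVA peptide (1 μg/mL) and mIL2, pretreated 1 h with DGK inhibitors, then co-cultured overnight at 37° C at 1:10 with MC38 cells pulsed 3 h with 1 μg/mL SIINFEKL. IFN-γ in 24 h supernatant by AlphaLISA.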

naïve human CD8 T cells = experiment: Human CD8 T cells IFN-γ assay; assay type: cell-based; settings: normalized to 3 μM reference compound with anti-CD3 plus anti-CD28 as 100% activation, read-out: HuCD8 INFG Normalized EC50;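 further: Naïve human CD8 T cells stimulated with plate-bound anti-CD3 and soluble anti-CD28, IFN-γ in supernatant quantified by AlphaLISA and converted to pg/mL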
human DGKζ = molecular target: T1, human DGKζ (Homo sapiens, UniProt Q13574); experiment: DGKζ LIPGLO assay (extruded liposome substrate), in vitro DGK inhibition; assay type: biochemical; settings: liposome (LIPGLO) assay; read-out: DGKz LIPGLO IC50
T1 construct: TVMV protease cleavage site (C); Hexa-His (C); made in house; host or cells: Sf9 insect cells (baculovirus, Bac-to-Bac)
T1 sequence (Q13574 with tags, fused parts or gaps isoform Q13574-4): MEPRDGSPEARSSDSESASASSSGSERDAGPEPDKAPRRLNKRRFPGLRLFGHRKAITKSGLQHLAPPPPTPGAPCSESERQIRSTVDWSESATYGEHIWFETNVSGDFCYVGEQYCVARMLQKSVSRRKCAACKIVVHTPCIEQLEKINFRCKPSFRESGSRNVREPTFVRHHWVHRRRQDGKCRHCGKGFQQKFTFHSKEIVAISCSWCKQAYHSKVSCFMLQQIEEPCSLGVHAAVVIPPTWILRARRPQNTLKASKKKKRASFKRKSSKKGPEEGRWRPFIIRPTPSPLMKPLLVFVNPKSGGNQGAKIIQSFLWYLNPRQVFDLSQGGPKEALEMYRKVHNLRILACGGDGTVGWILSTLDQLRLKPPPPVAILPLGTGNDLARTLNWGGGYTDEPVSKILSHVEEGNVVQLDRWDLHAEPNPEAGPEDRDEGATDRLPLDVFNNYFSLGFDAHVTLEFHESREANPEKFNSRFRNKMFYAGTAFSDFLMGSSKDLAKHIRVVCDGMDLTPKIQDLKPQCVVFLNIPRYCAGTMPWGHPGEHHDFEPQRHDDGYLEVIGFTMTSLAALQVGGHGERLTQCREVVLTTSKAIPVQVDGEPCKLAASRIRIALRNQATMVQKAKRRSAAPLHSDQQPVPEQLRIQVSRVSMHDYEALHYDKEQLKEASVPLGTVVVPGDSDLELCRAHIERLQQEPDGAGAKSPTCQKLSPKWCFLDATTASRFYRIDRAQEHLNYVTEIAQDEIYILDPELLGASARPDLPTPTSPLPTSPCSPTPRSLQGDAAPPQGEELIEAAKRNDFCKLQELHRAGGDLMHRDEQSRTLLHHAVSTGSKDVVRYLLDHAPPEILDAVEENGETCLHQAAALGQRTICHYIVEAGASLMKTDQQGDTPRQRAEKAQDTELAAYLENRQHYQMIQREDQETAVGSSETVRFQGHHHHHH

human DGKα = molecular target: T2, human DGKα (Homo sapiens, UniProt P23743); experiment: DGKα LIPGLO assay (extruded liposome substrate), in vitro DGK inhibition; assay type: biochemical; settings: liposome (LIPGLO) assay; read-out: DGKa LIPGLO IC50
T2 construct: TVMV protease cleavage site (C); Hexa-His (C); made in house; host or cells: Sf9 insect cells (baculovirus, Bac-to-Bac)
T2 sequence (P23743 with tags, fused parts or gaps): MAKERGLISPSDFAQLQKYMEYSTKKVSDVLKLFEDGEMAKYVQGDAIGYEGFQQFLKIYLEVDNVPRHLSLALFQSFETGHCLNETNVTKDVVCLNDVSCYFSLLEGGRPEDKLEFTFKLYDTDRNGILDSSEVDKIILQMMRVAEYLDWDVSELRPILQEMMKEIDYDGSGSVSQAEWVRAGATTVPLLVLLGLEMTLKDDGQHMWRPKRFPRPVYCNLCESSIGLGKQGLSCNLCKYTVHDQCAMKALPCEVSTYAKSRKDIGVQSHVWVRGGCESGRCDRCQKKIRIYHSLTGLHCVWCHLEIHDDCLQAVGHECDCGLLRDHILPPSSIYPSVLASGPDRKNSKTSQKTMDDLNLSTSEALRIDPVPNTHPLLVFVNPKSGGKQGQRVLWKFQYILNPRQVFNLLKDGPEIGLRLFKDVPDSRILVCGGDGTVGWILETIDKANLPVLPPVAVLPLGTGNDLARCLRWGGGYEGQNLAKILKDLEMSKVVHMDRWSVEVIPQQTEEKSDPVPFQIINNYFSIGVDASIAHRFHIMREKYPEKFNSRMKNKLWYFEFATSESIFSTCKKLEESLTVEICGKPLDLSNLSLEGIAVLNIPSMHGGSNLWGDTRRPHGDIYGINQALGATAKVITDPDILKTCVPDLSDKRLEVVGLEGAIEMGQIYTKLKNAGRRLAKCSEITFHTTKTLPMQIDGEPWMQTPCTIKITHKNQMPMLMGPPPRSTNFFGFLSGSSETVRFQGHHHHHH

Row | IC50 (human DGKζ) [nM] | IC50 (human DGKα) [nM] | Compound | EC50 (Human venous whole blood; Homo sapiens, 24 h) [nM] | IC50 [1] [nM] | EC50 (naïve human CD8 T cells; Homo sapiens, T-cell, 20 h) [nM] | EC50 (Human venous whole blood) [nM] | EC50 (naïve human CD8 T cells) [nM] | IC50 ([1]; Mus musculus, MC-38) [nM] | EC50 (Human venous whole blood; Homo sapiens) [nM]
1 | 3600 | 9500 | COC(=O)C1CN(C(c2ccc(F)cc2)c2ccc(F)cc2)CCN1c1c(C#N)c(=O)n(C)c2ccc(C#N)nc12 (single isomer, unassigned) [Example 116, Methyl 4-(bis(4-fluorophenyl)methyl)-1-(3,6-dicyano-1-methyl-2-oxo-1,2-dihydro-1,5-naphthyridin-4-yl)piperazine-2-carboxylate] | 3300 | 560 | 160 | – | – | – | –
2 | 7200 | 350 | COC(=O)C1CN(C(c2ccc(F)cc2)c2ccc(F)cc2)CCN1c1c(C#N)c(=O)n(C)c2ccc(C#N)nc12 (single isomer, unassigned) [Example 117, Methyl 4-(bis(4-fluorophenyl)methyl)-1-(3,6-dicyano-1-methyl-2-oxo-1,2-dihydro-1,5-naphthyridin-4-yl)piperazine-2-carboxylate] | – | 270 | – | 2500 | 280 | – | –
3 | 1700 | 29000 | COc1cc(F)ccc1C(c1ccc(F)cc1)N1C[C@H](C)N(c2cc(=O)n(C)c3ccc(C#N)nc23)C[C@H]1C (single isomer, unassigned) [Example 119] | – | 6300 | – | 5100 | 610 | – | –
4 | 3700 | 200 | C[C@@H]1CN(c2cc(=O)n(C)c3ccc(C#N)nc23)[C@@H](C)CN1C(c1ccc(F)cc1)c1ccccn1 (single isomer, unassigned) [Example 197] | 1100 | – | 35 | – | – | 82 | –
5 | 260 | 14000 | COc1ncccc1C(c1ccc(F)cc1)N1C[C@H](C)N(c2cc(=O)n(C)c3ccc(C#N)nc23)C[C@H]1C (single isomer, unassigned) [Example 210] | – | – | – | 1100 | 130 | 120 | –
6 | 210 | 370 | Cc1ccc(C(c2ccc(Cl)cc2)N2C[C@H](C)N(c3cc(=O)n(C)c4ccc(C#N)nc34)C[C@H]2C)cc1 (single isomer, unassigned) [Example 247] | 390 | – | 120 | – | – | 110 | –
7 | 630 | 600 | Cc1ccc(C(c2ccc(Cl)cc2)N2C[C@H](C)N(c3cc(=O)n(C)c4ccc(C#N)nc34)C[C@H]2C)cc1 (single isomer, unassigned) [Example 250] | – | 190 | – | 710 | 120 | – | –
8 | 440 | 660 | Cc1ccc(C(c2ccc(F)cc2)N2C[C@H](C)N(c3cc(=O)n(C)c4ccc(C#N)nc34)C[C@H]2C)cc1 (single isomer, unassigned) [Example 252] | – | 22 | – | 430 | 160 | – | –
9 | 640 | 170 | C[C@@H]1CN(c2cc(=O)n(C)c3ccc(C#N)nc23)[C@@H](C)CN1C(c1ccc(F)cc1)c1ccc(Cl)cc1 (single isomer, unassigned) [Example 302] | 570 | 24 | – | – | 23 | – | –
10 | 690 | 500 | C[C@@H]1CN(c2cc(=O)n(C)c3ccc(C#N)nc23)[C@@H](C)CN1C(c1ccc(F)cc1)c1ccc(Cl)cc1 (single isomer, unassigned) [Example 303] | – | 57 | – | 650 | 160 | – | –
11 | 1300 | 470 | C[C@@H]1CN(c2cc(=O)n(C)c3ccc(C#N)nc23)[C@@H](C)CN1C(c1ccc(F)cc1)c1ccc(C#N)cc1 (single isomer, unassigned) [Example 306] | 530 | – | 54 | – | – | 53 | –
12 | 1000 | 470 | C[C@@H]1CN(c2cc(=O)n(C)c3ccc(C#N)nc23)[C@@H](C)CN1C(c1ccc(F)cc1)c1ccc(C#N)cc1 (single isomer, unassigned) [Example 307] | – | 31 | – | 330 | 30 | – | –
13 | 160 | 25 | CC(c1ccc(F)cc1)N1C[C@H](C)N(c2cc(=O)n(C)c3ccc(C#N)nc23)C[C@H]1C (single isomer, unassigned) [Example 308] | 520 | – | – | – | 290 | 81 | –
14 | 240000 | 110000 | COc1cc(F)ccc1C(c1ccc(F)cc1)N1C[C@@H](C)N(c2c([N+](=O)[O-])c(=O)n(C)c3ccc(C#N)nc23)C[C@@H]1C (stereo in doubt) [Example 120, 8-((2R,5S)-4-((4-fluoro-2-methoxyphenyl)(4-fluorophenyl)methyl)-2,5-dimethylpiperazin-1-yl)-5-methyl-7-nitro-6-oxo-5,6-dihydro-1,5-naphthyridine-2-carbonitrile] | 20000 | – | 1000 | – | – | 4700 | –
15 | 5000 | 17000 | Cn1c(=O)cc(N2CCN(C(c3ccc(F)cc3)c3ccc(F)cc3)C(CF)C2)c2nc(C#N)ccc21 (centres unmarked) [Example 8, 8-(4-(bis(4-fluorophenyl)methyl)-3-(fluoromethyl)piperazin-1-yl)-5-methyl-6-oxo-5,6-dihydro-1,5-naphthyridine-2-carbonitrile] | 14000 | – | 230 | – | – | 1000 | –
16 | 12000 | 800 | C[C@@H]1CN(c2c(Cl)c(=O)n(C)c3ccc(C#N)nc23)[C@@H](C)CN1C(c1ccc(F)cc1)c1ccc(F)cc1 [Example 18, 8-((2S,5R)-4-(bis(4-fluorophenyl)methyl)-2,5-dimethylpiperazin-1-yl)-7-chloro-5-methyl-6-oxo-5,6-dihydro-1,5-naphthyridine-2-carbonitrile] | 20000 | – | 250 | – | – | 10000 | –
17 | 240000 | 42000 | C[C@@H]1CN(c2c(Br)c(=O)n(C)c3ccc(C#N)nc23)[C@@H](C)CN1C(c1ccc(F)cc1)c1ccc(F)cc1 [Example 19, 8-((2S,5R)-4-(bis(4-fluorophenyl)methyl)-2,5-dimethylpiperazin-1-yl)-7-bromo-5-methyl-6-oxo-5,6-dihydro-1,5-naphthyridine-2-carbonitrile] | 20000 | – | 10000 | – | – | 8700 | –
18 | 130000 | 95000 | C[C@@H]1CN(c2c(C3CC3)c(=O)n(C)c3ccc(C#N)nc23)[C@@H](C)CN1C(c1ccc(F)cc1)c1ccc(F)cc1 [Example 20, 8-((2S,5R)-4-(bis(4-fluorophenyl)methyl)-2,5-dimethylpiperazin-1-yl)-7-cyclopropyl-5-methyl-6-oxo-5,6-dihydro-1,5-naphthyridine-2-carbonitrile] | 20000 | – | 10000 | – | – | 10000 | –
19 | 37000 | 44000 | Cc1c(N2C[C@@H](C)N(C(c3ccc(F)cc3)c3ccc(F)cc3)C[C@@H]2C)c2nc(C#N)ccc2n(C)c1=O [Example 22, 8-((2S,5R)-4-(bis(4-fluorophenyl)methyl)-2,5-dimethylpiperazin-1-yl)-5,7-dimethyl-6-oxo-5,6-dihydro-1,5-naphthyridine-2-carbonitrile] | 20000 | – | 10000 | – | – | 10000 | –
20 | 250 | 650 | C[C@@H]1CN(c2cc(=O)n(C)c3ccc(C#N)nc23)[C@@H](C)CN1C(c1ccc(Cl)cc1)c1ccc(Cl)cc1 [Example 25, 8-((2S,5R)-4-(bis(4-chlorophenyl)methyl)-2,5-dimethylpiperazin-1-yl)-5-methyl-6-oxo-5,6-dihydro-1,5-naphthyridine-2-carbonitrile] | 390 | – | 4.3 | – | – | 41 | –
21 | 3000 | 24000 | C[C@@H]1CN(c2c(Cl)c(=O)n(C)c3ccc(C#N)nc23)[C@@H](C)CN1C(c1ccc(Cl)cc1)c1ccc(Cl)cc1 [Example 26, 8-((2S,5R)-4-(bis(4-chlorophenyl)methyl)-2,5-dimethylpiperazin-1-yl)-7-chloro-5-methyl-6-oxo-5,6-dihydro-1,5-naphthyridine-2-carbonitrile] | 20000 | – | 2300 | – | – | 10000 | –
22 | 1700 | 240000 | COC(=O)C1CN(c2cc(=O)n(C)c3ccc(C#N)nc23)CCN1C(c1ccc(F)cc1)c1ccc(F)cc1 (centres unmarked) [Example 27, Methyl 1-(bis(4-fluorophenyl)methyl)-4-(6-cyano-1-methyl-2-oxo-1,2-dihydro-1,5-naphthyridin-4-yl)piperazine-2-carboxylate] | – | – | 62 | – | – | 64 | 520
